From patent US20200207822A1, “PEPTIDE INHIBITORS OF INTERLEUKIN-23 RECEPTOR AND THEIR USE TO TREAT INFLAMMATORY DISEASES” (Protagonist Therapeutics, Inc., priority 2017, published 2020)
Positions of bridges follow the written chain, without caps; N, C: chain ends. Non-standard residues stand in square brackets, D forms with d. 2Nal = N[C@@H](Cc1ccc2ccccc2c1)C(=O)O; AEF = NCCOc1ccc(C[C@H](N)C(=O)O)cc1; αMeL = CC(C)C[C@](C)(N)C(=O)O; Pen = CC(C)(S)[C@H](N)C(=O)O; Thp = NC1(C(=O)O)CCOCC1; Abu = CC[C@H](N)C(=O)O

system: IL-23R-expressing DB cells stimulated with IL-23 (pSTAT3 levels); experiment: DB cells IL23R pSTAT3 cell assay (Cisbio HTRF pSTAT3); format: cell-based, human; details: Table E1, Pen-Pen disulfide peptides, IL-23 0.5 nM, 30 minutes at 37° C.
Excerpt: Human ELISA indicates the IL23-IL23R competitive binding assay described below, Rat ELISA indicates the rat IL-23R competitive binding ELISA assay described below, and pStat3HTRF indicates the DB cells IL-23R pSTAT3 cell assay described below. The peptides depicted in Table E1 are cyclized via a disulfide bridge formed between two Pen residues in these peptides. The peptides depicted in Table E2 are cyclized via a thioether bond between the indicated amino acid residues. Table E2 provides an illustrative structure depicting thioether cyclization, which is indicated in the table by the term “cyclo,” with the cyclic region bracketed immediately following the term “cyclo.” For certain peptides, the residue Abu is present where indicated, whereas in other embodiments, e.g., those related to the non-cyclized form, the Abu may be referred to as a hSer(Cl) or homoSer residue.
DB Cells IL23R pSTAT3 Cell Assay
IL-23 plays a central role in supporting and maintaining Th17 differentiation in vivo. […] This cell assay examines the levels of pSTAT3 in IL-23R-expressing DB cells when stimulated with IL-23 in the presence of test compounds.

| IC50 [nM] | Substance |
| --- | --- |
| 1 to 10 | 8 (Ac-[Pen]NTWQ[Pen][AEF]W[Thp]K(Ac)NN-NH2; disulfide 1-6 (inferred)) [compound 8] |

same assay, conditions: Table E2, thioether peptides, IL-23 0.5 nM, 30 minutes at 37° C.

| Substance | IC50 [nM] |
| --- | --- |
| 100 (XXQTWWCXXXENN; MOD_RES (1)..(1) D-form arginine; MOD_RES (2)..(2) Abu; (2)..(7) residues cyclosized; MOD_RES (8)..(8) 4-(2-aminoethoxy)-L-phenylalanine; MOD_RES (9)..(9) L-2-Napthylalanine; MOD_RES (10)..(10) 4-amino-4-carboxy-tetrahydropyran) [compound 100] | 1 to 10 |
| 84 (XXQTWQCXXXEND; MOD_RES (1)..(1) D-form arginine; MOD_RES (2)..(2) Abu; (2)..(7) residues cyclosized; MOD_RES (8)..(8) 4-(2-aminoethoxy)-L-phenylalanine; MOD_RES (9)..(9) L-2-Napthylalanine; MOD_RES (10)..(10) 4-amino-4-carboxy-tetrahydropyran) [compound 84] | 10 to 100 |
| 75 (XXQTWECXXXENN; MOD_RES (1)..(1) D-form arginine; MOD_RES (2)..(2) Abu; (2)..(7) residues cyclosized; MOD_RES (8)..(8) 4-(2-aminoethoxy)-L-phenylalanine; MOD_RES (9)..(9) L-2-Napthylalanine; MOD_RES (10)..(10) 4-amino-4-carboxy-tetrahydropyran) [compound 75] | 1 to 10 |
| 74 (XXQTWQCXXXEDN; MOD_RES (1)..(1) D-form arginine; MOD_RES (2)..(2) Abu; (2)..(7) residues cyclosized; MOD_RES (8)..(8) 4-(2-aminoethoxy)-L-phenylalanine; MOD_RES (9)..(9) L-2-Napthylalanine; MOD_RES (10)..(10) 4-amino-4-carboxy-tetrahydropyran) [compound 74] | 10 to 100 |
| 73 (XXQTWQCXXXEND; MOD_RES (1)..(1) D-form arginine; MOD_RES (2)..(2) Abu; (2)..(7) residues cyclosized; MOD_RES (8)..(8) 4-(2-aminoethoxy)-L-phenylalanine; MOD_RES (9)..(9) L-2-Napthylalanine; MOD_RES (10)..(10) 4-amino-4-carboxy-tetrahydropyran) [compound 73] | 1 to 10 |
| 85 (XXQTWQCXXXEDN; MOD_RES (1)..(1) D-form arginine; MOD_RES (2)..(2) Abu; (2)..(7) residues cyclosized; MOD_RES (8)..(8) 4-(2-aminoethoxy)-L-phenylalanine; MOD_RES (9)..(9) L-2-Napthylalanine; MOD_RES (10)..(10) 4-amino-4-carboxy-tetrahydropyran) [compound 85] | 10 to 100 |
| 99 (XXQTWFCXXXENN; MOD_RES (1)..(1) D-form arginine; MOD_RES (2)..(2) Abu; (2)..(7) residues cyclosized; MOD_RES (8)..(8) 4-(2-aminoethoxy)-L-phenylalanine; MOD_RES (9)..(9) L-2-Napthylalanine; MOD_RES (10)..(10) 4-amino-4-carboxy-tetrahydropyran) [compound 99] | 10 to 100 |
| 86 (XXQTWECXXXENN; MOD_RES (1)..(1) D-form arginine; MOD_RES (2)..(2) Abu; (2)..(7) residues cyclosized; MOD_RES (8)..(8) 4-(2-aminoethoxy)-L-phenylalanine; MOD_RES (9)..(9) L-2-Napthylalanine; MOD_RES (10)..(10) 4-amino-4-carboxy-tetrahydropyran) [compound 86] | 1 to 10 |
| 102 (XXQTWTCXXXENN; MOD_RES (1)..(1) D-form arginine; MOD_RES (2)..(2) Abu; (2)..(7) residues cyclosized; MOD_RES (8)..(8) 4-(2-aminoethoxy)-L-phenylalanine; MOD_RES (9)..(9) L-2-Napthylalanine; MOD_RES (10)..(10) 4-amino-4-carboxy-tetrahydropyran) [compound 102] | 10 to 100 |

Next, values leading:

| IC50 [nM] | Substance |
| --- | --- |
| 10 to 100 | 103 (XXQTWVCXXXENN; MOD_RES (1)..(1) D-form arginine; MOD_RES (2)..(2) Abu; (2)..(7) residues cyclosized; MOD_RES (8)..(8) 4-(2-aminoethoxy)-L-phenylalanine; MOD_RES (9)..(9) L-2-Napthylalanine; MOD_RES (10)..(10) 4-amino-4-carboxy-tetrahydropyran) [compound 103] |
| 1 to 10 | 79 (Ac-[dR][Abu]ETWQC[AEF][2Nal][Thp]END-NH2; thioether 2-7) [compound 79] |
| 10 to 100 | 81 (Ac-[dR][Abu]ETWQC[AEF][2Nal][Thp]EDN-NH2; thioether 2-7) [compound 81] |
| 1 to 10 | 82 (Ac-[dR][Abu]ETWEC[AEF][2Nal][Thp]ENN-NH2; thioether 2-7) [compound 82] |
| 1 to 10 | 78 (Ac-[dR][Abu]QTWEC[AEF][2Nal][Thp]END-NH2; thioether 2-7) [compound 78] |
| 10 to 100 | 80 (Ac-[dR][Abu]QTWEC[AEF][2Nal][Thp]EDN-NH2; thioether 2-7) [compound 80] |
| 10 to 100 | 77 (Ac-[dR][Abu]QTWQC[AEF][2Nal][Thp]EDD-NH2; thioether 2-7) [compound 77] |

same assay, conditions: Table L3 (E3), additional peptide inhibitors, IL-23 0.5 nM, 30 minutes at 37° C.

| Substance | IC50 [nM] |
| --- | --- |
| 179 (Ac-K(Ac)[Pen]NTWQ[Pen][AEF][2Nal][αMeL]K(Ac)NN-NH2; disulfide 2-7 (inferred)) [compound 179] | 1 to 10 |
| 182 (Ac-[Pen]NTWQ[Pen][4‑Carbamoyl‑L‑phenylalanine][2Nal][αMeL]K(Ac)NNK(Ac)-NH2; disulfide 1-6 (inferred)) [compound 182] | 1 to 10 |
| 180 (Ac-K(Ac)[Pen]NTWQ[Pen][4‑Carbamoyl‑L‑phenylalanine][2Nal][αMeL]K(Ac)NN-NH2; disulfide 2-7 (inferred)) [compound 180] | 1 to 10 |

Next, values leading:

| IC50 [nM] | Substance |
| --- | --- |
| 1 to 10 | 156 (XXQTWQCXXXKNN; MOD_RES (1)..(1) D-form arginine; MOD_RES (2)..(2) Abu; (2)..(7) residues cyclosized; MOD_RES (8)..(8) 4-(2-aminoethoxy)-L-phenylalanine; MOD_RES (9)..(9) L-2-Napthylalanine; MOD_RES (10)..(10) 4-amino-4-carboxy-tetrahydropyran; MOD_RES (11)..(11) PEG12 conjugation) [compound 156] |
| 1 to 10 | 154 (XXQTWKCXXXENN; MOD_RES (1)..(1) D-form arginine; MOD_RES (2)..(2) Abu; (2)..(7) residues cyclosized; MOD_RES (6)..(6) PEG12 conjugation; MOD_RES (8)..(8) 4-(2-aminoethoxy)-L-phenylalanine; MOD_RES (9)..(9) L-2-Napthylalanine; MOD_RES (10)..(10) 4-amino-4-carboxy-tetrahydropyran) [compound 154] |
| 1 to 10 | 158 (XNTWQXXXXKNND; MOD_RES (1)..(1) L-Penicillamine; MOD_RES (6)..(6) L-Penicillamine; MOD_RES (7)..(7) 4-(2-aminoethoxy)-L-phenylalanine; MOD_RES (8)..(8) L-2-Napthylalanine; MOD_RES (9)..(9) alpha-methyl-L-Leucine; MOD_RES (10)..(10) …ON) [compound 158] |
| 1 to 10 | 160 (XNTWQXXXXKNNW; MOD_RES (1)..(1) L-Penicillamine; MOD_RES (6)..(6) L-Penicillamine; MOD_RES (7)..(7) 4-(2-aminoethoxy)-L-phenylalanine; MOD_RES (8)..(8) L-2-Napthylalanine; MOD_RES (9)..(9) alpha-methyl-L-Leucine; MOD_RES (10)..(10) …ON) [compound 160] |
| 1 to 10 | 181 (XNTWQXXXXKNNK; MOD_RES (1)..(1) L-Penicillamine; MOD_RES (6)..(6) L-Penicillamine; MOD_RES (7)..(7) 4-(2-aminoethoxy)-L-phenylalanine; MOD_RES (8)..(8) L-2-Napthylalanine; MOD_RES (9)..(9) alpha-methyl-L-Leucine; MOD_RES (10)..(10) …ON; MOD_RES (13)..(13) …ON) [compound 181] |
| 1 to 10 | 163 (XNTWQXXXXKNNG; MOD_RES (1)..(1) L-Penicillamine; MOD_RES (6)..(6) L-Penicillamine; MOD_RES (7)..(7) 4-(2-aminoethoxy)-L-phenylalanine; MOD_RES (8)..(8) L-2-Napthylalanine; MOD_RES (9)..(9) alpha-methyl-L-Leucine; MOD_RES (10)..(10) …ON) [compound 163] |
| 1 to 10 | 162 (XNTWQXXXXKNNL; MOD_RES (1)..(1) L-Penicillamine; MOD_RES (6)..(6) L-Penicillamine; MOD_RES (7)..(7) 4-(2-aminoethoxy)-L-phenylalanine; MOD_RES (8)..(8) L-2-Napthylalanine; MOD_RES (9)..(9) alpha-methyl-L-Leucine; MOD_RES (10)..(10) …ON) [compound 162] |
